{
  "source": "paper PMC12624743",
  "about": "(ACS Infectious Diseases, 2025)",
  "key": {"[1]": {"target": "T1, WT N. gonorrhoeae gyrase (Neisseria gonorrhoeae, UniProt P48371)", "T1 construct": "His; made in house", "assay": "Gyrase-catalyzed DNA supercoiling assay, WT", "assay_type": "biochemical", "conditions": "relaxed pBR322, 1.5 mM ATP, read-out: IC50, inhibition of DNA supercoiling", "method": "All proteins were His-tagged. N. gonorrhoeae WT gyrase (GyrA, GyrB) and topoisomerase IV (ParC, ParE) subunits as well as mutant GyrA^D90N, GyrA^A92T, GyrA^S91F, and GyrA^S91F/D95G gyrase and ParC^D86N and ParC^S88P topoisomerase IV were prepared as described previously. , N. gonorrhoeae mutant GyrA^D95G gyrase and mutant ParC^S87N and ParC^E91G topoisomerase IV were generated using a QuickChange II XL site-directed mutagenesis kit (Agilent Technologies) with custom primers for the desired mutations. […] The identities of all constructs were confirmed by DNA sequencing, and all enzymes were stored at −80 °C. In all assays, N. gonorrhoeae gyrase or topoisomerase IV was used as a 1:1 GyrA:GyrB or ParC:ParE mixture, respectively, and the stated enzyme concentration reflects that of the holoenzyme (A2B2).\nSamples were mixed with 2 μL of loading dye [60% sucrose, 10 mM Tris–HCl (pH 7.9), 0.5% bromophenol blue, and 0.5% xylene cyanol FF] and incubated at 45 °C for 2 min before being subjected to electrophoresis on 1% agarose gels in 100 mM Tris-borate (pH 8.3) and 2 mM EDTA. […] DNA bands were visualized with medium-range ultraviolet light and quantified using an Alpha Innotech digital imaging system (Protein Simple). DNA supercoiling was monitored by the conversion of relaxed to supercoiled plasmid."}, "[2]": {"target": "T2, N. gonorrhoeae gyrase GyrA^A92T (Neisseria gonorrhoeae, UniProt P48371, A92T)", "T2 construct": "His; made in house", "T2 sequence (P48371 whole entry A92T)": "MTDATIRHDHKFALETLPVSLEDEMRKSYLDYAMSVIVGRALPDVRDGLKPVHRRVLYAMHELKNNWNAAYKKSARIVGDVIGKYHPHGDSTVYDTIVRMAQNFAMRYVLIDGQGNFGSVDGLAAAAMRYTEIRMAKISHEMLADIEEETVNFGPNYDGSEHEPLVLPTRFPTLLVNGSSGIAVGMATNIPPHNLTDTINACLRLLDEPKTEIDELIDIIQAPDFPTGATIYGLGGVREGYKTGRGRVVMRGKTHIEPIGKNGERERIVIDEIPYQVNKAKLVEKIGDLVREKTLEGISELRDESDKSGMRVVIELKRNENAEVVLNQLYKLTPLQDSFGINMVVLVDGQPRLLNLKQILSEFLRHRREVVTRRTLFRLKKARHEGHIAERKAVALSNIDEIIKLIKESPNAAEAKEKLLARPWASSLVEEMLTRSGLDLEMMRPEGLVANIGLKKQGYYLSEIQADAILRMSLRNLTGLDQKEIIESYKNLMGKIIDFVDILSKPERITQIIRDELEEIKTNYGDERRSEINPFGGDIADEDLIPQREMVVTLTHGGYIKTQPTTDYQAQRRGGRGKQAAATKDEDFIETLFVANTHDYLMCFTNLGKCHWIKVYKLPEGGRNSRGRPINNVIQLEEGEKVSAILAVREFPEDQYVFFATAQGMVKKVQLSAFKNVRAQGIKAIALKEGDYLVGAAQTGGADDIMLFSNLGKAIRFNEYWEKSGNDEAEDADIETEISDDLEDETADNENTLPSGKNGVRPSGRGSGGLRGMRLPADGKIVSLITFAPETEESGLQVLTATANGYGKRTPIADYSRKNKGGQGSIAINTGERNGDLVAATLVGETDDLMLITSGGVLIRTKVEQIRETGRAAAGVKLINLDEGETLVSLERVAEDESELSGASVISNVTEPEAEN", "T2 sequence (P22118 whole entry partner)": "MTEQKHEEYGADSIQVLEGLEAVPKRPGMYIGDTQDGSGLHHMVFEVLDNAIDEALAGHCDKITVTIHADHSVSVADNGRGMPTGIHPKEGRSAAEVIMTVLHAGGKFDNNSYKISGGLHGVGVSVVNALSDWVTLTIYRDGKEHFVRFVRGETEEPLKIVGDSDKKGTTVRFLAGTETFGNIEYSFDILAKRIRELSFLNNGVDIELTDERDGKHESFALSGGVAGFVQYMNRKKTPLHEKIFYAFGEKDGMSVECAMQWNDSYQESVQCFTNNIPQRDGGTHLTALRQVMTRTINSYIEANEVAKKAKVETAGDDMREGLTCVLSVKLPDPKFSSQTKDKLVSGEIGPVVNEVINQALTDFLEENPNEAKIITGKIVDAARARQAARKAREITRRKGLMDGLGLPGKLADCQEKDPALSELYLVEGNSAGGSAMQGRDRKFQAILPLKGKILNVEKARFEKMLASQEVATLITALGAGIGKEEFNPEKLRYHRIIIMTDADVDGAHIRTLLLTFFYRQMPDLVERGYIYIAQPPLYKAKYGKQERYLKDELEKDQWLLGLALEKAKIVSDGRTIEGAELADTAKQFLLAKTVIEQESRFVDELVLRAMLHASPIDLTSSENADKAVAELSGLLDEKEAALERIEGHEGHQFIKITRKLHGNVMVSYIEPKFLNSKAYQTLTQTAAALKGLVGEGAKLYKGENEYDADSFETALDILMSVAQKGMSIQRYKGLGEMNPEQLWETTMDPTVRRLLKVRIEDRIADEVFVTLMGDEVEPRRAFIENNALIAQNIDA", "assay": "DNA cleavage assay, GyrA^A92T gyrase", "assay_type": "biochemical", "method": "Some experiments replaced MgCl2 with an equivalent concentration of CaCl2 (10 mM), or 1.5 mM ATP was added to assay mixtures.\nReactions were incubated at 37 °C for 30 min with WT and mutant (GyrA^D90N, GyrA^A92T, GyrA^S91F, GyrA^D95G, or GyrA^S91F/D95G) N. gonorrhoeae gyrase, 10 min with WT N. gonorrhoeae topoisomerase IV, and 20 min with mutant (ParC^D86N, ParC^S88P, ParC^S87N, or ParC^E91G) N. gonorrhoeae topoisomerase IV. Enzyme-DNA cleavage complexes were trapped by adding 2 μL of 5% SDS followed by 2 μL of 250 mM EDTA (pH 8.0). Proteinase K was added (2 μL of a 0.8 mg/mL solution), and reaction mixtures were incubated at 45 °C for 30 min to digest the enzyme. Samples were mixed with 2 μL of loading buffer and heated at 45 °C for 2 min prior to electrophoresis in 1% agarose gels in 40 mM Tris-acetate (pH 8.3), and 2 mM EDTA containing 0.5 μg/mL ethidium bromide. DNA bands were visualized by midrange ultraviolet light and quantified using an Alpha Innotech digital imaging system (Protein Simple). Single-stranded DNA cleavage was monitored by the conversion of negatively supercoiled to nicked plasmid molecules."}, "[3]": {"tested_on": "uncomplicated urogenital gonorrhea", "set-up": "method as in recent phase III clinical trial", "conditions": "vs intramuscular ceftriaxone plus oral azithromycin, ref recent phase III clinical trial; cited from earlier work"}},
  "note": "“Also recorded” adds a separate entry of the source.",
  "data": [
    {"smiles": "O=c1ccc2ncc(=O)n3c2n1C[C@H]3CN1CCC(NCc2cc3c(cn2)OCCC3)CC1", "note": "[gepotidacin]", "values": [
      {"measurement": "IC50", "setting": "[1]", "result": "5.1 ± 2.3", "unit": "µM"},
      {"measurement": "Adj-Max Cleavage, single-stranded DNA breaks", "setting": "[2]", "result": 4.9, "unit": "%"},
      {"measurement": "EC50", "setting": "[2]; GyrA A92T gyrase, read-out: CC50, single-stranded DNA cleavage", "result": 0.5, "unit": "µM"},
      {"measurement": "fold decrease of adjusted maximal DNA cleavage vs WT", "setting": "[2]; GyrA A92T vs WT", "result": "~3.5", "unit": "fold"},
      {"measurement": "outcome of phase III clinical trial", "setting": "[3]", "result": "met its primary efficacy end point; also recorded: noninferiority"}
    ]}
  ]
}
